In patent US6756374B2, “Diaminothiazoles having antiproliferative activity” (Hoffmann-La Roche Inc., priority 2001, dated 2004):

Columns and labels:
[1] = molecular target: Cdk1 (Homo sapiens, UniProt P06493); conditions: cited from earlier work
[2] = molecular target: Cdk4 (Homo sapiens, UniProt P11802); conditions: cited from earlier work
[3] = test system: PKC; conditions: cited from earlier work
[4] = test system: cells; conditions: cited from earlier work
[5] = molecular target: Cdk2 (Homo sapiens, UniProt P24941); conditions: cited from earlier work
[6] = test system: HCT116; assay: Tetrazolium dye (MTT) proliferation assay; assay type: cell-based; conditions: Homo sapiens, HCT-116; HCT116 colorectal carcinoma cell line
Protocol: The cell line used was HCT116, a colorectal carcinoma cell line obtained from the American Type Cell Culture Collection (ATCC;
Rockville, Md.). The cells were grown in McCoy's 5A medium supplemented with 10% FCS and L-glutamine.
Cells were plated at the appropriate seeding density to give logarithmic growth over the course of the assay in a 96-well tissue culture plate. Plates were incubated overnight at 37° C. in a humidified incubator with 5% CO2. The next day, test compounds were serially diluted to four times the final concentration in the appropriate medium containing 1.2% DMSO. One-fourth final volume of each dilution was added in duplicate to the plates containing cells. The same volume of 1.2% DMSO in medium was added to a row of “control wells” such that the final concentration of DMSO in each well was 0.3%. Wells to which no cells were added served as the “blank.” Wells to which no inhibitor was added served as “no inhibitor control.” The plates were) returned to the incubator, and at set time points (determined by their growth curves) plates were analyzed as described below.
3-(4,5-dimethylthiazole-2-yl)-2,5-diphenyl-2H-tetrazolium bromide (thiazolyl blue; MTT; Sigma) was added to each well to yield a final concentration of 1 mg/ml. Plates were returned to the incubator for 2.5-3 hours at 37° C. The MTT-containing medium was removed and the resulting formazan metabolite was solubilized in 100% ethanol with shaking for 15 minutes at room temperature. Absorbance readings were taken in a microtiter plate reader (Dynatech and Molecular Devices plate readers were used interchangeably) at a wavelength of 570 nm with a 650 nm reference. Percent inhibition (% INH) is calculated by subtracting the absorbance of the blank well from all wells, then subtracting the ratio of the average absorbance of each test duplicate (SAVE) by the average of the controls (CAVE) from 1.00. The final number is then multiplied by 100 (% INH=(1.00−SAVE/CAVE)×100).

[7] = molecular target: human cyclin E-CDK2 (Homo sapiens, UniProt P24941); assay: FlashPlate kinase assay, cyclin E-CDK2; assay type: biochemical; conditions: Rb protein substrate, 1 μM ATP
Protocol: (§1) To determine inhibition of Cdk4, Cdk2 and Cdk1 activity, kinase assays were conducted using FlashPlate™ assays (NEN™-Life Science Products). FlashPlate assays were performed using recombinant human cyclin B-CDK1, human cyclin E-CDK2 or human cyclin D1-CDK4 complexes. GST-cyclinE (GST-cycE), CDK2, GST-cyclinB (GST-cycB), CDK1, GST-CDK4 and cyclin D1 (cycD1) cDNA clones in baculovirus vectors were provided by Dr. W. Harper at the Baylor College of Medicine, Houston, Tex.
(§2) The expression of the 62Kd protein was under the control of an IPTG inducible promoter in an M15 E. coli strain. Cells were lysed by sonication and purification was carried out by binding lysates at pH 8.0 to a Ni-chelated agarose column pretreated with 1 mM imidazole. The resin was then washed several times with incrementally decreasing pH buffers to pH 6.0, and eluted with 500 mM imidazole. Eluted protein was dialysed against 20 mM HEPES pH 7.5, 30% glycerol, 200 mM NaCl, and 1 mM DTT. Purified Rb fusion protein stocks were quantitated for protein concentration, aliquoted, and stored at −70° C.
(§3) For all three kinase assays reported herein, 96-well FlashPlates were coated with Rb protein at 10 μg/ml, using 100 μl per well. Plates were incubated at 4° C. overnight or at room temperature for 3 hours on a shaker. To control for nonspecific phosphorylation, one row of wells was coated with 100 μl/well coating buffer (20 mM HEPES, 0.2 M NaCl). Plates were then washed twice with wash buffer (0.01% Tween 20 in phosphate-buffered saline). Compounds to be tested (“test compounds”) were added to the wells at 5×final concentration. Reactions were initiated by immediate addition of 40 μl reaction mix (25 mM HEPES, 20 mM MgCl2, 0.002% Tween 20, 2 mM DTT, 1 μM ATP, 4 nM ^33P-ATP) and a sufficient amount of enzyme to give counts that were at least 10-fold above background. Plates were incubated at room temperature on a shaker for 30 minutes. Plates were washed four times with the wash buffer, sealed, and counted on the TopCount scintillation counter (Packard Instrument Co., Downers Grove, Ill.]. The percent inhibition of Rb phosphorylation, which is a measure of the inhibition of CDK activity, was determined according to the following formula: [formula]
(§4) where “test compound” refers to the average counts per minute of the test duplicates, “nonspecific” refers to the average counts per minute when no CyclinD/Cdk4, etc., was added, and “total” refers to the average counts per minute when no compound was added.

[8] = molecular target: human cyclin B-CDK1 (Homo sapiens, UniProt P06493); assay: FlashPlate kinase assay, cyclin B-CDK1; assay type: biochemical; conditions: Rb protein substrate, 1 μM ATP
Protocol: as §1, §2, §3, §4

[9] = molecular target: human cyclin D1-CDK4 (Homo sapiens, UniProt P11802); assay: FlashPlate kinase assay, cyclin D1-CDK4; assay type: biochemical; conditions: Rb protein substrate, 1 μM ATP
Protocol: as §1, §2, §3, §4

human cyclin D1-CDK4, sequence (P11802 whole entry): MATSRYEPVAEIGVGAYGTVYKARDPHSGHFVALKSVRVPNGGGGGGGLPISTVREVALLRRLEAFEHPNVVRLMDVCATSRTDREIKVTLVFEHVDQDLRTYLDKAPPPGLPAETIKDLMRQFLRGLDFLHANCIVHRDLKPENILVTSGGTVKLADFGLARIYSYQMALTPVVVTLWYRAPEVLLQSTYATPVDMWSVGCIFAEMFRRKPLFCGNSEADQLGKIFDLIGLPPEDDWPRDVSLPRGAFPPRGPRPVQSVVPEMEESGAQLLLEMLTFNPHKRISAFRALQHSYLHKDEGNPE
human cyclin D1-CDK4, sequence (P24385 whole entry partner): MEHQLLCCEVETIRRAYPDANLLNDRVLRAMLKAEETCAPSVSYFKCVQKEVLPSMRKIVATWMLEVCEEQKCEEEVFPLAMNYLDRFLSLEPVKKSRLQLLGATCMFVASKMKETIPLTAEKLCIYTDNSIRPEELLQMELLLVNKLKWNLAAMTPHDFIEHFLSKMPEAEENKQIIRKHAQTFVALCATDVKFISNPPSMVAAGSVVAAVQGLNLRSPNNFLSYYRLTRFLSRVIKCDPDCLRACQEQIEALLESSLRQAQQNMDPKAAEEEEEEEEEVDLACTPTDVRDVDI
human cyclin B-CDK1, sequence (P06493 whole entry): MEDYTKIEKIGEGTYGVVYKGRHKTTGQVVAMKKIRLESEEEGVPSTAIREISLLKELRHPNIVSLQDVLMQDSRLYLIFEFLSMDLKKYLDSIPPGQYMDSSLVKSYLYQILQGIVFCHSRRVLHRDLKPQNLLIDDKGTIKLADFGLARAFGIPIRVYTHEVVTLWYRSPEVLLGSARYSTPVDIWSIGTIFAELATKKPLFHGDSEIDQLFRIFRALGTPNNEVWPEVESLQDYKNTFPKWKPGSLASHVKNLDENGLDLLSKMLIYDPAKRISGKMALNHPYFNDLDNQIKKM
human cyclin B-CDK1, sequence (P14635 whole entry partner): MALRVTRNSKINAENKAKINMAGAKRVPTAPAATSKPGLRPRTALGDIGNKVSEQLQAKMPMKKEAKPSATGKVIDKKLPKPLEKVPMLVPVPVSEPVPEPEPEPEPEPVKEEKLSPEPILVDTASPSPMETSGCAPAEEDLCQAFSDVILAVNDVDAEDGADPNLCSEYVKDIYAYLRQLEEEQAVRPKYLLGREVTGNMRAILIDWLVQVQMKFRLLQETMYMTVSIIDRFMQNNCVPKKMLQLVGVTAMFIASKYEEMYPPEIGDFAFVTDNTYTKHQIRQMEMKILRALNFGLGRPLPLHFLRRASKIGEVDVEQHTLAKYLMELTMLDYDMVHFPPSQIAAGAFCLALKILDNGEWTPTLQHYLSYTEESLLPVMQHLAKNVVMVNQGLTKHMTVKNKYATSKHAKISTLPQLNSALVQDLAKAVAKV
Cdk4, sequence (P11802 whole entry, species assumed): as the sequence (P11802 whole entry) above
Cdk4, sequence (P24385 whole entry partner, species assumed): as the sequence (P24385 whole entry partner) above
Cdk1, sequence (P06493 whole entry, species assumed): as the sequence (P06493 whole entry) above
Cdk1, sequence (P14635 whole entry partner, species assumed): as the sequence (P14635 whole entry partner) above

IC50 [6]	IC50 [7]	IC50 [8]	IC50 [9]	SMILES	inhibition of Cdk1 [1]	inhibition of Cdk4 [2]	inhibition of PKC [3]	cell cycle block [4]	inhibition of Cdk2 [5]
3.9 µM	2.3 µM	3.5 µM	0.012 µM	CN1CCN(c2ccc(Nc3nc(N)c(C(=O)c4ccc(N5CCCC(CO)C5)c([N+](=O)[O-])c4)s3)cc2)CC1 (racemic) [Example 61, [4-Amino-2-[[4-(4-methyl-1-piperazinyl)phenyl]amino]-5-thiazolyl][3-nitro-4-[3-(hydroxymethyl)-1-piperidinyl]phenyl]methanone]	–	–	–	–	–
5.3 µM	1.5 µM	2.1 µM	0.015 µM	Nc1nc(Nc2ccc(N3CCN(CCO)CC3)cc2)sc1C(=O)c1ccc2c(c1)OCCO2 [Example 49, [4-Amino-2-[[4-[4-(2-hydroxyethyl)-1-piperazinyl]phenyl]amino]-5-thiazolyl](2,3-dihydro-1,4-benzodioxin-6-yl)methanone]	–	–	–	–	–
3.6 µM	2.3 µM	2.4 µM	0.053 µM	CN1CCN(c2ccc(Nc3nc(N)c(C(=O)c4ccc(O)cc4)s3)cc2)CC1 [Example 30, [4-Amino-2-[[4-(4-methyl-1-piperazinyl)phenyl]amino]-5-thiazolyl]-(4-hydroxyphenyl)methanone]	–	–	–	–	–

Continued, molecule first:

SMILES	IC50 [6]	IC50 [7]	IC50 [8]	IC50 [9]	inhibition of Cdk1 [1]	inhibition of Cdk4 [2]	inhibition of PKC [3]	cell cycle block [4]	inhibition of Cdk2 [5]
CN1CC[C@H](c2c(O)cc(O)c3c(=O)cc(-c4ccccc4Cl)oc23)[C@H](O)C1 [Flavopiridol]	–	–	–	–	inhibits	inhibits	weaker inhibitor	blocks cells in both G1 and G2 phases	inhibits
COc1cccc(C(=O)c2sc(Nc3ccc(N4CCN(CCO)CC4)cc3)nc2N)c1 [Example 53, [4-Amino-2-[[4-[4-(2-hydroxyethyl)-1-piperazinyl]phenyl]amino]-5-thiazolyl](3-methoxyphenyl)methanone]	2.5 µM	1.3 µM	2.3 µM	0.006 µM	–	–	–	–	–
CC(=O)Nc1ccc(C(=O)c2sc(Nc3ccc(N4CCN(C(C)C)CC4)cc3)nc2N)cc1 [Example 45]	2.9 µM	4.9 µM	5.6 µM	0.025 µM	–	–	–	–	–
